Each compound was assayed against T1, truncated human beta-secretase (residues 1-458, His6-tagged at the C-terminus) (Homo sapiens, UniProt P56817) (assay: BACE fluorescence quench assay). Settings: not given.
T1 construct: truncated human beta-secretase (residues 1-458, His6-tagged at the C-terminus); His6 (C); made in house; host or cells: insect cells D. melanogaster S2 (baculovirus expression system (so in the source))
Format: biochemical
Protocol: The assay was performed at room temperature in 96-well white opaque Optiplates aque Optiplates (PerkinElmer, Waltham, Mass.) in a total volume of 200 μl of the incubation mixture containing 50 mM sodium acetate buffer, pH 4.5, 0.4 μM FRET substrate, 2.4 nM enzyme, 5% DMSO, and 0.05% Brij-35. The tested compounds were serially diluted in DMSO and pre-incubated with the substrate. The reaction was started by addition of enzyme, and the progress of the reaction was followed by measuring fluorescence with an excitation wavelength of 480 nm and an emission wavelength of 520 nm. Ten measurements were taken every 5-10 min, and the intensity of fluorescence was regressed against time in order to derive velocities of reaction in all 96 wells. […] IC50 values were calculated by fitting percent inhibition vs. inhibitor concentration into a four-parametric logistic model using XLFit software (IDBS, Guildford, UK).

T1 sequence (P56817 22-458): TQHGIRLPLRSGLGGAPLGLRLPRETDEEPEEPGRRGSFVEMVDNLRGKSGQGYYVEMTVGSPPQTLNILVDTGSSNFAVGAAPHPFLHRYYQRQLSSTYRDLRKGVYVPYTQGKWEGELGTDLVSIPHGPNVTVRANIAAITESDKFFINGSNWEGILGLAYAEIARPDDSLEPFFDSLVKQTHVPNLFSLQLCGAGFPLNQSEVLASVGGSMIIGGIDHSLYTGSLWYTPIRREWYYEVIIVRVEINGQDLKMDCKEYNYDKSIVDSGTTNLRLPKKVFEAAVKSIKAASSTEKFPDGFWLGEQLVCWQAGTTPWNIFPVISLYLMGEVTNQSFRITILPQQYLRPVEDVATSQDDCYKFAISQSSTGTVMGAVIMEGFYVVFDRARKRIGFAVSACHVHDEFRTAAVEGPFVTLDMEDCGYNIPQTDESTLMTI

First: CN1C(=O)C2(CC(c3ccccc3)Oc3ccc(-c4cccn4C(=O)OC(C)(C)C)cc32)N=C1N (stereo not shown) [Compound 70, tert-butyl 2-(2′-amino-1′-methyl-5′-oxo-2-phenyl-1′,5′-dihydrospiro[chroman-4,4′-imidazole]-6-yl)-1H-pyrrole-1-carboxylate]
Second: CN1C(=O)C2(CC(c3ccccc3)Oc3ccc(-c4cncc(C#N)c4)cc32)N=C1N (stereo not shown) [Compound 5, 5-(2′-amino-1′-methyl-5′-oxo-2-phenyl-1′,5′-dihydrospiro[chroman-4,4′-imidazole]-6-yl)nicotinonitrile]
The IC50 of the first is higher: 10000 to 50000 nM for the first, 100 to 500 nM for the second.

Same assay, conditions: in vitro enzyme activity, BACE fluorescence assay, pH 4.5; read-out: IC50

Compared with `CN1OC2(CC3(CCCN(c4ncccn4)C3)Oc3ccc(-c4cccc(C#N)c4)cc32)N=C1N` (stereo not shown) [Compound 329], `CN1OC2(CC3(CCCOC3)Oc3ccc(-c4cccc(C#N)c4)cc32)N=C1N` (stereo not shown) [Compound 117] is higher in IC50: 100 to 500 nM for the first, 1000 to 5000 nM for the second. The first is the more potent here.

`CN1OC2(CC3(CCCCOC3)Oc3ccc(-c4cccc(C#N)c4)cc32)N=C1N` (stereo not shown) [Compound 114] and `CN1O[C@@]2(C[C@]3(CCOC3)Oc3ccc(-c4cccc(C#N)c4)cc32)N=C1N` [Compound 113b] fall in the same range of IC50: 500 to 1000 nM for the first, 500 to 1000 nM for the second.

Compared with `CN1OC2(CC(C3CCCOC3)Oc3ccc(-c4cc(F)cc(F)c4)cc32)N=C1N` (stereo not shown) [Compound 90, 6-(3,5-difluorophenyl)-2′-methyl-2-(tetrahydro-2H-pyran-3-yl)-2′H-spiro[chroman-4,5′-[1,2,4]oxadiazol]-3′-amine], `CN1OC2(C[C@H](C3CCOC(C)(C)C3)Oc3ccc(-c4ccc5cn[nH]c5c4)cc32)N=C1N` (stereo partly shown) [Compound 369] is higher in IC50: 100 to 500 nM for the first, 500 to 1000 nM for the second.

First: CN1C(=O)C2(CC3(CCCC3)Oc3ccc(-c4cccc(C#N)c4)cc32)N=C1N (stereo not shown) [Compound 79]
Second: Cc1cccc(-c2ccc3c(c2)C2(CC4(CCCOC4)O3)N=C(N)N(C)C2=O)c1 (stereo not shown) [Compound 301]
The IC50 of the first is higher: 500 to 1000 nM for the first, 100 to 500 nM for the second. The second is the more potent here.

First: CN1OC2(N=C1N)c1ccccc1OCC2CCc1cccc(C#N)c1 (stereo not shown) [Compound 399]
Second: CC1C2(CCCOC2)Oc2ccc(-c3cccc(C#N)c3)cc2C12N=C(N)N(C)O2 (stereo not shown) [Compound 111]
The IC50 of the first is higher: 1000 to 5000 nM for the first, 100 to 500 nM for the second. The second is the more potent here.

First: CN1O[C@]2(C[C@H](CC3CCCO3)Oc3ccc(-c4cccc(C#N)c4)cc32)N=C1N (stereo in doubt) [Compound 366, 3-(3′-amino-2′-methyl-2-((tetrahydrofuran-2-yl)methyl)-2′H-spiro[chroman-4,5′-[1,2,4]oxadiazole]-6-yl)benzonitrile]
Second: CC1CCC2(C1)CC1(N=C(N)N(C)O1)c1cc(-c3cccc(C#N)c3)ccc1O2 (stereo not shown) [Compound 125]
The IC50 of the first is lower: 500 to 1000 nM for the first, 5000 to 10000 nM for the second. The first is the more potent here.

`CN1C(=O)[C@@]2(C[C@]3(CCCOC3)Oc3ccc(-c4ccco4)cc32)N=C1N` [Compound 411] and `CN1C(=O)C2(CC3(CCCOC3)Oc3ccc(-c4ccsc4)cc32)N=C1N` (stereo not shown) [Compound 397] fall in the same range of IC50: 1000 to 5000 nM for the first, 1000 to 5000 nM for the second.

First: CN1C(=O)C2(CC3(CCCc4ccccc4C3)Oc3ccc(Br)cc32)N=C1N (stereo not shown) [Compound 381]
Second: CN1C(=O)C2(CC3(CCCOC3)Oc3ccc(-c4cccc(F)c4)cc32)N=C1N (stereo not shown) [Compound 347]
The IC50 of the first is higher: 1000 to 5000 nM for the first, 500 to 1000 nM for the second.

`CC(C)=CC(CCO)C1CC2(N=C(N)N(C)O2)c2cc(-c3cc(F)cc(C#N)c3)ccc2O1` (stereo not shown) [Compound 377] and `CC(C)=CC(CCO)C1CC2(N=C(N)N(C)O2)c2cc(-c3cccc(C#N)c3F)ccc2O1` (stereo not shown) [Compound 430] fall in the same range of IC50: 1000 to 5000 nM for the first, 1000 to 5000 nM for the second.

`CN1C(=O)C2(CC3(CCCOC3)Oc3ccc(-c4cc(F)ccc4F)cc32)N=C1N` (stereo not shown) [Compound 332] and `CN1C(=O)[C@@]2(C[C@@]3(CCCOC3)Oc3ccc(-c4cccc(C(F)(F)F)c4)cc32)N=C1N` [Compound 325] fall in the same range of IC50: 100 to 500 nM for the first, 100 to 500 nM for the second.

First: CN1OC2(CC3(CCOCC3)Oc3ccc(-c4cccc(C#N)c4)cc32)N=C1N (stereo not shown) [Compound 115]
Second: CN1OC2(CC3(CCS(=O)(=O)CC3)Oc3ccc(-c4cccc(C#N)c4)cc32)N=C1N (stereo not shown) [Compound 438]
The IC50 of the first is lower: 500 to 1000 nM for the first, 5000 to 10000 nM for the second.

In the case of `CCCN1C(=O)[C@@]2(C[C@H](c3ccccc3)Oc3ccc(Br)cc32)N=C1N` [Compound 57a, (2R,4S)-2′-amino-6-bromo-2-phenyl-1′-propylspiro[chroman-4,4′-imidazol]-5′(1′H)-one], the IC50 is reported as 10000 to 50000 nM.

From patent publication US8450308B2 (Vitae Pharmaceuticals, Inc., priority 2008, dated 2013)
